Measurements taken from patent US10786505B2, “Administration of NEDD8-activating enzyme inhibitor and chemotherapeutic agents” (Millennium Pharmaceuticals, Inc., priority 2013, dated 2020).

Tests used:
Assay type in all cases: in vivo, mice
[1] = tested on: NCI-H69 xenograft model; assay: Combination of carboplatin and MLN4924 in NCI-H69 xenograft model
Procedure: (§1) NCI-H69 or NCI-H82 small cell lung tumor fragments (30- to 40-mg) are implanted into the subcutaneous space in the area of the right flank of NCr nu/nu mice (7-10 weeks, Charles River Laboratories, Inc, Frederick Md. or Wilmington, Mass.) using a 12-gauge trocar.
(§2) Carboplatin (CARBOplatin Injection, Hospira, Inc., Qilu Pharmaceutical Co., Ltd. Jinan, Shandong, China, and Teva Gry-Pharma GmbH, Ulm, Germany) is formulated in 0.9% saline and administered by IP injection once weekly (QW) at 50 mg/kg. The once weekly schedule is also described as every 7 days (Q7D).
(§3) Tumors are measured twice weekly using a vernier caliper. Tumor volumes are calculated using standard procedures (0.5×(length×width^2)). […] Tumor size and body weight are measured approximately twice a week for the duration of the study. Mice are euthanized when their tumor volume reached 10% of their body weight, or when the average tumor volume of a treatment or control group reached approximately 2000 mm^3. Tumor growth continued to be monitored after the dosing period in some studies. Average tumor volume is reported as a function of time for selected groups of selected studies in Figures A, B, and C.
(§4) Measurements from day 0 to 18, 21 or 22 are analyzed as specified in Tables 4-9. All tumor volumes have a value of 1 added to them before log10 transformation. For each animal, the log tumor volume at day 0 is subtracted from the log tumor volume on the subsequent days. This difference vs. time is used to calculate an area under the curve (AUC) for each animal using the trapezoid rule. […] The synergy score for the combination of agents A and B is defined as 100*(mean(AUCAB)−mean(AUCA)−mean(AUCB)+mean(AUCctl))/mean(AUCctl): where AUCAB, AUCA, AUCB, and AUCctl are the AUC values for animals in the combination group, the A group, the B group, and the control group, respectively. The standard error of the synergy score is computed based on the variation in the AUC values among the animals. […] If the P-value is above 0.05, then the combination is considered to be additive. If the P-value is below 0.05, and the synergy score is less than zero, then the combination is considered to be synergistic. […] Otherwise, the combination is classified as antagonistic.

[2] = tested on: NCI-H1650 xenograft model; assay: Combination of docetaxel and MLN4924 in NCI-H1650 xenograft model
From the text: NCI-H1650 (2×10^6) tumor cells in RPMI-1640 media are mixed with an equal volume of Matrigel (BD Biosciences) and aseptically injected into the subcutaneous space in the right dorsal flank of Balb/c Nude mice (age 4-6 weeks, Shanghai SINO-British SIPPR/BK Lab Animal Ltd.) using a 25-gauge needle.
(§5) Docetaxel (Henry Schein, Inc., Pittsburgh Pa., Qilu Pharmaceutical Co., Ltd., Jinan, Shandong, China, and Sanofi-Aventis) is formulated in 0.9% saline and administered by intravenous injection (IV) once weekly (QW) at 5 mg/kg or 10 mg/kg.
as §3, §4

[3] = tested on: NCI-H82 xenograft model; assay: Combination of cisplatin and MLN4924 in NCI-H82 xenograft model
Procedure: as §1, §3, §4

[4] = tested on: PHTX02B xenograft model; assay: Combination of gemcitabine and MLN4924 in PHTX02B xenograft model
Procedure: The PHTX02B breast xenograft model was established from a patient-derived tumor collected during surgery from a person with invasive ductal carcinoma classified as triple negative breast cancer (ER-/PR-/Her2-) by IHC. […] Gemcitabine (Gemzar, Henry Schein, Inc, Pittsburgh Pa., and Myoderm Medical, Norristown, Pa.) is formulated in 0.9% saline and administered by intraperitoneal injection (IP) q3Dx4 (every 3 days for a total of 4 doses) at 2.5 mg/kg or 10 mg/kg, or by IV injection twice weekly (BIW) at 20 mg/kg IVU. […] Tumors are measured twice weekly using a vernier caliper. […] Tumor size and body weight are measured approximately twice a week for the duration of the study. […] Tumor growth continued to be monitored after the dosing period in some studies. […] Average tumor volume is reported as a function of time for selected groups of selected studies in Figures A, B, and C. Measurements from day 0 to 18, 21 or 22 are analyzed as specified in Tables 4-9. […] For each animal, the log tumor volume at day 0 is subtracted from the log tumor volume on the subsequent days. This difference vs. time is used to calculate an area under the curve (AUC) for each animal using the trapezoid rule. In instances when an animal in a treatment group is removed early from the study, the last observed tumor value is carried forward through all subsequent time points. […] The standard error of the synergy score is computed based on the variation in the AUC values among the animals. […] Otherwise, the combination is classified as antagonistic.

[5] = tested on: LXFE409 xenograft model; assay: Combination of docetaxel or carboplatin and MLN4924 in LXFE409 xenograft model; settings: for average tumor volume day 21: LXFE409 xenograft
Procedure: LXFE409 squamous non small cell lung cancer tumor fragments are implanted into the subcutaneous space in the flank of female NMRI nu/nu mice (5-7 weeks, Janvier Labs, Saint Berthevin, France).
as §5, §2, §3, §4

[6] = tested on: LU1143 xenograft model; assay: Combination of docetaxel or carboplatin and MLN4924 in LU1143 xenograft model; settings: 45 mg/kg MLN4924 BID SC
Procedure: as §5, §2, §3
Measurements from day 0 to 18, 21 or 22 are analyzed as specified in Tables 4-9. All tumor volumes have a value of 1 added to them before log10 transformation. For each animal, the log tumor volume at day 0 is subtracted from the log tumor volume on the subsequent days. This difference vs. time is used to calculate an area under the curve (AUC) for each animal using the trapezoid rule. […] The synergy score for the combination of agents A and B is defined as 100*(mean(AUCAB)−mean(AUCA)−mean(AUCB)+mean(AUCctl))/mean(AUCctl): where AUCAB, AUCA, AUCB, and AUCctl are the AUC values for animals in the combination group, the A group, the B group, and the control group, respectively. The standard error of the synergy score is computed based on the variation in the AUC values among the animals. […] If the P-value is above 0.05, then the combination is considered to be additive. […]

[7] = tested on: NCI-H69 xenograft model; assay: Combination of cisplatin and MLN4924 in NCI-H69 xenograft model
Procedure: as §1, §3, §4

[8] = tested on: PHTX02B breast xenograft model; assay: Combination of docetaxel and MLN4924 in PHTX02B xenograft model; settings: for average tumor volume day 21: PHTX02B xenograft
From the text: The PHTX02B breast xenograft model was established from a patient-derived tumor collected during surgery from a person with invasive ductal carcinoma classified as triple negative breast cancer (ER−/PR−/Her2−) by IHC. PHTX02B tumor fragments (approximately 2×2×3 mm^3) are implanted into the subcutaneous space in the right dorsal flank of female SCID-NOD mice (age 5-7 weeks, Jackson Laboratory, Bar Harbor, Me.) using a 13-gauge trocar.
as §5, §3, §4

[9] = 120 mg/kg MLN4924 Q2Dx3/week SC
[10] = 60 mg/kg MLN4924 BID Q2Dx3/week SC

NS(=O)(=O)OC[C@@H]1C[C@@H](n2ccc3c(N[C@H]4CCc5ccccc54)ncnc32)C[C@@H]1O [MLN4924, ((1S,2S,4R)-4-(4-((1S)-2,3-dihydro-1H-inden-1-ylamino)-7H-pyrrolo[2,3-d]-pyrimidin-7-yl)-2-hydroxycyclopentyl)methyl sulfamate]
average tumor volume day 21 ([1]; 60 mg/kg MLN4924 BID Q3D x 2/week SC): 597.1 mm^3
average tumor volume day 21 ([1]; 120 mg/kg MLN4924 BID Q3D x 2/week SC): 415.2 mm^3
tumor growth during the treatment period (in words) ([1]; FIG. 3, MLN4924 SC 120 mg/kg BID Q3Dx2/week, carboplatin 50 mg/kg IP QW, single agents or their combination): inhibited tumor growth compared to the control vehicle group
average tumor volume day 21 ([2]; 90 mg/kg MLN4924 Q2Dx3/week SC): 776.8 mm^3
average tumor volume day 21 [2, 9]: 774.2 mm^3
average tumor volume day 22 [3, 10]: 861.9 mm^3
average tumor volume day 22 ([3]; 60 mg/kg MLN4924 BID Q3Dx2/week SC): 783.3 mm^3
average tumor volume day 22 ([4]; 30 mg/kg MLN4924 BID SC): 647.4 mm^3
tumor growth during the treatment period (in words) ([4]; FIG. 2, MLN4924 SC 30 mg/kg BID, gemcitabine 10 mg/kg IP q3dx4, single agents or their combination): inhibited tumor growth compared to the control vehicle group
tumor course after the treatment period, to end of study on day 95 (in words) ([5]; LXFE409 sqNSCLC model, FIG. 4, MLN4924 120 mg/kg SC Q2Dx3/week for 3 weeks, docetaxel 10 mg/kg IV QW for 3 weeks, single agents or combination): regrew after the treatment period ended
average tumor volume day 21 ([5]; 90 mg/kg MLN4924 Q2Dx3/week SC): 707.5 mm^3
average tumor volume day 21 [5, 9]: 167.1 mm^3
average tumor volume day 21 [6]: 801.2 mm^3
average tumor volume day 22 ([7]; 45 mg/kg MLN4924 BID Q3Dx2/week SC): 438.5 mm^3
average tumor volume day 22 [7, 10]: 475.4 mm^3
tumor growth during the treatment period (in words) ([8]; PHTX02B breast xenograft, FIG. 1, MLN4924 SC 60 mg/kg BID 5 days on/5 days off, docetaxel 5 mg/kg IV QW, single agents or their combination): inhibited tumor growth compared to the control vehicle group
average tumor volume day 21 ([8]; 30 mg/kg MLN4924 BID 5 on/5 off SC): 1110.9 mm^3
average tumor volume day 21 ([8]; 30 mg/kg MLN4924 BID SC): 894.4 mm^3
average tumor volume day 21 ([8]; 60 mg/kg MLN4924 BID 5 on/5 off SC): 532.2 mm^3
